The values that follow come from patent US6448224B1, “Antibiotics and methods of using the same” (priority 1998, dated 2002).

The test system of assay [1] is Lyt 4-4. As to the kind of experiment: Chain morphology of Lyt 4-4. It counts as cell-based, Streptococcus pneumoniae. Conditions: 0.5 mM peptide in the medium. An excerpt: Loss of chain formation is a measure of antibacterial activity independent of autolysin.
Strains of pneumococcus that are tolerant to penicillin, such as Lyt 4-4, grow in long chains as compared to the diplococcal morphology of wild type pneumococci. FIG. 6A illustrates these chains, which extend to 30-50 bacteria in length.

In assay [2] the test system is clinical isolate A144. As to the kind of experiment: Cell viability (CFU/ml) of clinical isolate A144 one hour after addition. Conditions: 10×MIC penicillin, 10×MIC vancomycin or 0.4 mM peptide. It counts as cell-based, pneumococcus. From the text:
(§1) Tolerance to penicillin occurs in bacteria that fail to trigger autolysins in response to the drug. […] This is a mechanism of resistance to these drugs and is a serious emerging medical problem. […] However, one pneumococcal strain that fails to lyse and dies slowly in response to both penicillin and vancomycin is the clinical isolate A144. This combination of traits makes A144 recalcitrant to therapy. FIG. 8 compares the activity of penicillin, vancomycin, and the peptide against a classical sensitive strain, R6, and the tolerant strain A144. […] In contrast, strain A144 loses only 0.5 logs of viability in the same time period for all three therapies. […] Thereafter the bacteria grew more slowly than untreated controls.

The subject of assay [3] is HK mutant strain Van S. The experiment in a line: Lysis of HK mutant VanS cells. It counts as cell-based, pneumococcus. Conditions: 10×MIC penicillin and/or 0.5 mM peptide. As for the experimental part:
FIGS. 11A-11B show the effects of 10×MIC of penicillin and/or 0.5 mM of the peptide having the amino acid sequence of SEQ ID NO:2 on the lysis of clinical isolate F79 cells (FIG. 11A) and HK mutant VanS cells (FIG. 11B).
F79 is a natural isolate of pneumococcus with mutations in the HK and the ABC transporter genes as determined by SSCP (see Example 11). This strain is tolerant to penicillin and vancomycin.

For assay [4], the system named is pneumococcal strain R6. As to the kind of experiment: Cell viability (CFU/ml) of R6, plating on blood agar. It counts as cell-based, Streptococcus pneumoniae. Conditions: 0.1 mM peptide. As for the experimental part: (§2) The peptide having amino acid sequence SEQ ID NO:2 was chemically synthesized and tested for growth inhibiting, killing and lytic activity in Streptococcus pneumoniae cultures. To characterize the antibacterial activity of the peptide, pneumococcal strain R6 which is sensitive to penicillin was exposed to 0.1 mM of the peptide having the amino acid sequence of SEQ ID NO:2 at an optical density of 0.01 (bacterial density of 3×10^6 cfu/ml). Bacterial growth as measured by optical density was followed for 11 hours and viability was assessed by plating on blood agar. […] Four hours after the start of the experiment, the control strain grew from 3×10^6 to 1.2×10^7 cfu/ml. In contrast, four hours after addition of the peptide, the viable bacterial number decreased from 3×10^6 to 3×10^4 CFU/ml (10^3-fold lower than the control).
as §1

Assay [5] relates to pneumococcus R6, non-growing. The experiment in a line: Lysis of R6 cells under starvation conditions (medium lacking lysine). It counts as cell-based. The following applies: 10×MIC penicillin and/or 0.5 mM peptide. From the text: When bacteria grow slowly or stop growing due to nutrient deprivation, they become tolerant to antibiotics of all classes. […] This prolongs the course of antibiotics needed to treat these infections. For instance, many weeks of therapy are required to treat endocarditis and osteomyelitis secondary to slowly growing bacteria. An in vitro example of phenotypic tolerance is shown in FIG. 10 where pneumococcus R6 has been transferred at time 0 to a medium lacking the essential amino acid lysine. Penicillin was added 5 min after the transfer. […] This same response is seen with the peptide.

Assay [6] relates to mutant in ORF WI. As to the kind of experiment: Antibacterial activity of the peptide in mutants: growth inhibition, ORF W1 mutant. It counts as cell-based, S. pneumoniae. Conditions: peptide added from the outside. From the text:
(§3) To test this hypothesis the ability of the peptide having the amino acid sequence of SEQ ID NO:2 to maintain antibacterial activity in the mutants was examined. […] Furthermore, bacteria which are tolerant by virtue of phenotypic tolerance due to slow growth rate or mutations in genes other than the RR/HK will be susceptible to the antibacterial effect of the peptide.

Assay [7] concerns clinical isolate A144. As to the kind of experiment: Growth of clinical isolate A144. It counts as cell-based, pneumococcus. Conditions: 0.1 mM peptide added early in the growth cycle; for 4 hours.
Text: as §1

Assay [8] deals with RR/HK mutants. The experiment in a line: Antibacterial activity of the peptide in mutants: growth inhibition, RR/HK mutants. It counts as cell-based, S. pneumoniae. Conditions: peptide added exogenously.
Text: as §3

In assay [9] the test system is pneumococcal strain R6. The experiment in a line: Cell growth curves (OD 620 nm) of R6 cultures with or without test reagents. It counts as cell-based, Streptococcus pneumoniae. The protocol:
(§4) Cell growth curves were performed in the presence or absence of the test reagents as specified. In short, samples were prepared as follows: 1 ml of a pneumococcus culture was placed into 10 ml of prewarmed Semisynthetic (C+Y) medium. The optical density (OD) of the bacteria was monitored at 620 nm until an OD of approximately 0.1 was reached. At this point the test reagents were administered to the samples. The cells were cultured for up to 11 hours at 37° Celsius, and the OD at 620 nm was monitored every hour. A decrease in OD 620 is indicative of cell lysis, an increase is indicative of bacterial growth. No change in optical density indicates growth inhibition.
as §2
The fact that the peptide is active in the range below 1 μg/ml places the potency of its antibacterial effect in the same range as conventional antibiotics.
R6 with no peptide was the control and underwent exponential growth.

Assay [10] deals with Lyt-4-4 strain of Streptococcus pneumoniae (loss of LytA activity). The experiment in a line: Growth curve (OD 620 nm) of autolysin deficient strain Lyt 4-4. It counts as cell-based. Conditions: 0.1 mM peptide; absence of autolytic activity. The protocol:
The addition of the additives were made at time “0” hours. The strain of bacteria cultured was the Lyt-4-4 strain of Streptococcus pneumoniae which harbors a mutation leading to the loss of LytA activity. The peptide having the amino acid sequence of SEQ ID NO:2 was added as indicated at a concentration of 0.1 mM. Lyt-4-4 lacks active autolysin LytA and is therefore tolerant to penicillin treatment.
as §4
This antibacterial effect was also demonstrable in bacteria mutated so as to prevent autolysis by point mutation in the autolysin, as in the autolysin deficient strain Lyt 4-4.

“Also recorded” adds a separate entry of the source.

For the sequence “MRKEFHNVLSSGQLLADKRPARDYN (listed as Streptococcus pneumoniae) [Peptide 1]”, the “chain morphology of Lyt 4-4” value in assay [1] (listed as SEQ ID NO.2) is “dissolution of the chains”; in [1] (listed as the peptide), “reversion of the chains to diplococci”. Also, in assay [2], the “loss of viability of A144 within one hour” value is 0.5 logs. In assay [3], the “lysis / tolerance of strain Van S” value is reported as “not responsive”. Moreover, in [4] (four hours), the “viable bacterial number lower than the control” value is recorded as 10^3 fold. The “killing of R6 (FIG. 2B)” value in assay [4] (listed as SEQ ID NO:2) is listed as “kills the bacteria without substantial cell lysis occurring; also recorded: rapidly killed”. Moreover, the “viable bacterial number four hours after addition of the peptide” value in assay [4] (start 3×10^6, control grew to 1.2×10^7 cfu/ml) is 3×10^4 CFU/ml. Also, the “lysis response of non-growing R6” value in assay [5] is given as “same response”. Further, the “growth inhibition of the mutant in ORF W1” value in assay [6] is “not able to inhibit growth”. In addition, in [7], the “growth of strain A144” value is recorded as “significantly inhibits the growth”. Besides, in [8], the “growth inhibition of the RR/HK mutants” value was “did not function to inhibit the growth”. Further, the “ability to inhibit R6 growth (FIG. 5)” value in assay [9] (100 μM peptide added to growing R6 at OD 620 nm of 0.1) is “significant delay in the onset of bacterial growth”. In addition, the lysis entry in [9] (0.1 mM peptide, R6, followed for 11 hours) is “No lysis was detected”. In assay [9] (0.1 mM peptide, R6 at optical density 0.01 (3×10^6 cfu/ml), followed for 11 hours), the “growth of the bacteria (optical density)” value was “completely inhibited growth”. The “minimum effective concentration (MEC)” value in assay [9] (R6, converted with molecular weight 2940) is 0.15 to 0.3 µg/mL; in assay [9] (R6, optical density of the culture over 4 hours), 50 to 100 nM. In assay [9] (R6, various amounts of peptide, 4 hours), the “dose response of antibacterial activity” value is “dose dependent antibacterial activity”. In addition, in assay [10], the “bactericidal activity in strain Lyt 4-4” value is recorded as “demonstrable”.
